Data: PubChem BioAssay AID1963960 (Molecular Pharmacology Branch, DTP, NCI, 2024)

Tested on: MDA-MB-468 spheroids with HUVEC/MSC, viability
Assay: Anticancer human tumor MDA-MB-468 cell line growth inhibition [PI3K];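 further: spheroids exposed to agents for seven days before readout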;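 on viability, T/C: 100% = DMSO vehicle control viability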
Conditions: for IC50: curve of first compound; for viability, T/C: stronger effect = lower value
Summary of the method: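 High-throughput combination screen: PI3K inhibitors crossed with targeted small molecules on complex spheroids of tumor cells, HUVEC and MSCs at 37 degrees C, 5% CO2. Top concentration was at or near clinical Cmax (otherwise 10 microM), with half-log decrements.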

[1] = second compound 0.00316 µM, first compound 0.0316 µM
[2] = second compound 0.00316 µM, first compound 0.1 µM
[3] = second compound 0.00316 µM, first compound 0.316 µM
[4] = second compound 0.00316 µM, first compound 1 µM
[5] = second compound 0.00316 µM, first compound 3.16 µM
[6] = second compound 0.00316 µM, first compound 10 µM
[7] = second compound 0.01 µM, first compound 0.0316 µM
[8] = second compound 0.01 µM, first compound 0.1 µM
[9] = second compound 0.01 µM, first compound 0.316 µM
[10] = second compound 0.01 µM, first compound 1 µM
[11] = second compound 0.01 µM, first compound 3.16 µM
[12] = second compound 0.01 µM, first compound 10 µM
[13] = second compound 0.0316 µM, first compound 0.0316 µM
[14] = second compound 0.0316 µM, first compound 0.1 µM
[15] = second compound 0.0316 µM, first compound 0.316 µM
[16] = second compound 0.0316 µM, first compound 1 µM
[17] = second compound 0.0316 µM, first compound 3.16 µM
[18] = second compound 0.0316 µM, first compound 10 µM
[19] = second compound 0.1 µM, first compound 0.0316 µM
[20] = second compound 0.1 µM, first compound 0.1 µM
[21] = second compound 0.1 µM, first compound 0.316 µM
[22] = second compound 0.1 µM, first compound 1 µM
[23] = second compound 0.1 µM, first compound 3.16 µM
[24] = second compound 0.1 µM, first compound 10 µM
[25] = second compound 0.316 µM, first compound 0.0316 µM
[26] = second compound 0.316 µM, first compound 0.1 µM
[27] = second compound 0.316 µM, first compound 0.316 µM
[28] = second compound 0.316 µM, first compound 1 µM
[29] = second compound 0.316 µM, first compound 3.16 µM
[30] = second compound 0.316 µM, first compound 10 µM
[31] = second compound 1 µM, first compound 0.0316 µM
[32] = second compound 1 µM, first compound 0.1 µM
[33] = second compound 1 µM, first compound 0.316 µM
[34] = second compound 1 µM, first compound 1 µM
[35] = second compound 1 µM, first compound 3.16 µM
[36] = second compound 1 µM, first compound 10 µM

Work on `CCCS(=O)(=O)Nc1ccc(F)c(C(=O)c2c[nH]c3ncc(-c4ccc(Cl)cc4)cc23)c1F` + COc1c(OCCCN2CCOCC2)ccc2c3n(c(=NC(=O)c4cnc(N)nc4)nc12)CCN3 yielded an IC50 (second compound 0.00316 µM) of 5.17 µM, an IC50 (second compound 0.01 µM) of 5.38 µM and an IC50 (second compound 0.0316 µM) of 4.5 µM. For the same compound, the IC50 (second compound 0.1 µM) was 2.11 µM, the IC50 (second compound 0.316 µM) was < 0.0316 µM and the IC50 (second compound 1 µM) was < 0.0316 µM. It also gave a viability, T/C [1] of 84.8%, a viability, T/C [2] of 102% and a viability, T/C [3] of 84.6%. For the same compound, the viability, T/C [4] was 102%, the viability, T/C [5] was 74.1% and the viability, T/C [6] was 17.9%. It also gave a viability, T/C [7] of 84.2%, a viability, T/C [8] of 82.3% and a viability, T/C [9] of 93.9%. The viability, T/C [10] was 84.3%, the viability, T/C [11] was 75.6% and the viability, T/C [12] was 20%. It also gave a viability, T/C [13] of 74.1%, a viability, T/C [14] of 78.2% and a viability, T/C [15] of 76.5%. It also gave a viability, T/C [16] of 74.3%, a viability, T/C [17] of 64.9% and a viability, T/C [18] of 16.2%. It also gave a viability, T/C [19] of 55.8%, a viability, T/C [20] of 56.5% and a viability, T/C [21] of 64.7%. It also gave a viability, T/C [22] of 59.1%, a viability, T/C [23] of 45.2% and a viability, T/C [24] of 12.3%. It also gave a viability, T/C [25] of 28.1%, a viability, T/C [26] of 29.7% and a viability, T/C [27] of 29.1%. The viability, T/C [28] was 27.6%, the viability, T/C [29] was 26.6% and the viability, T/C [30] was 8.09%. For the same compound, the viability, T/C [31] was 4.14%, the viability, T/C [32] was 4.88% and the viability, T/C [33] was 4.04%. For the same compound, the viability, T/C [34] was 5.95%, the viability, T/C [35] was 5.41% and the viability, T/C [36] was 3.73%.

For `C[C@@H](NC(=O)c1ncnc(N)c1Cl)c1ncc(C(=O)Nc2cc(C(F)(F)F)c(Cl)cn2)s1` + COc1c(OCCCN2CCOCC2)ccc2c3n(c(=NC(=O)c4cnc(N)nc4)nc12)CCN3, the IC50 (second compound 0.00316 µM) was > 10 µM, the IC50 (second compound 0.01 µM) was > 10 µM and the IC50 (second compound 0.0316 µM) was > 10 µM. For the same compound, the IC50 (second compound 0.1 µM) was > 10 µM, the IC50 (second compound 0.316 µM) was < 0.0316 µM and the IC50 (second compound 1 µM) was < 0.0316 µM. The viability, T/C [1] was 83.1%, the viability, T/C [2] was 91.9% and the viability, T/C [3] was 93.5%. It also gave a viability, T/C [4] of 96.2%, a viability, T/C [5] of 86.4% and a viability, T/C [6] of 76.4%. It also gave a viability, T/C [7] of 87%, a viability, T/C [8] of 101% and a viability, T/C [9] of 87.4%. For the same compound, the viability, T/C [10] was 101%, the viability, T/C [11] was 99.7% and the viability, T/C [12] was 71.4%. For the same compound, the viability, T/C [13] was 79.7%, the viability, T/C [14] was 79.2% and the viability, T/C [15] was 91.6%. The viability, T/C [16] was 75.9%, the viability, T/C [17] was 74.5% and the viability, T/C [18] was 61.6%. For the same compound, the viability, T/C [19] was 51.1%, the viability, T/C [20] was 52.5% and the viability, T/C [21] was 57.5%. For the same compound, the viability, T/C [22] was 66.6%, the viability, T/C [23] was 59.9% and the viability, T/C [24] was 56.6%. It also gave a viability, T/C [25] of 28.3%, a viability, T/C [26] of 27.8% and a viability, T/C [27] of 30%. For the same compound, the viability, T/C [28] was 37.3%, the viability, T/C [29] was 36.3% and the viability, T/C [30] was 31.9%. The viability, T/C [31] was 5.16%, the viability, T/C [32] was 4.86% and the viability, T/C [33] was 5.09%. It also gave a viability, T/C [34] of 7.06%, a viability, T/C [35] of 7.47% and a viability, T/C [36] of 5.33%.

`Cn1ncnc1[C@H]1c2n[nH]c(=O)c3cc(F)cc(c23)N[C@@H]1c1ccc(F)cc1` + COc1c(OCCCN2CCOCC2)ccc2c3n(c(=NC(=O)c4cnc(N)nc4)nc12)CCN3 was tested, and the IC50 (second compound 0.00316 µM) was > 0.1 µM, the IC50 (second compound 0.01 µM) was > 0.1 µM and the IC50 (second compound 0.0316 µM) was 0.0834 µM. For the same compound, the IC50 (second compound 0.1 µM) was 0.0231 µM, the IC50 (second compound 0.316 µM) was < 0.000316 µM and the IC50 (second compound 1 µM) was < 0.000316 µM. It also gave a viability, T/C (second compound 0.00316 µM, first compound 0.000316 µM) of 103%, a viability, T/C (second compound 0.00316 µM, first compound 0.001 µM) of 89% and a viability, T/C (second compound 0.00316 µM, first compound 0.00316 µM) of 83.8%. The viability, T/C (second compound 0.00316 µM, first compound 0.01 µM) was 79.1%, the viability, T/C [1] was 69.4% and the viability, T/C [2] was 57.9%. It also gave a viability, T/C (second compound 0.01 µM, first compound 0.000316 µM) of 79.7%, a viability, T/C (second compound 0.01 µM, first compound 0.001 µM) of 89.8% and a viability, T/C (second compound 0.01 µM, first compound 0.00316 µM) of 92%. For the same compound, the viability, T/C (second compound 0.01 µM, first compound 0.01 µM) was 74.7%, the viability, T/C [7] was 70.5% and the viability, T/C [8] was 50.1%. It also gave a viability, T/C (second compound 0.0316 µM, first compound 0.000316 µM) of 75.9%, a viability, T/C (second compound 0.0316 µM, first compound 0.001 µM) of 84.6% and a viability, T/C (second compound 0.0316 µM, first compound 0.00316 µM) of 70.2%. For the same compound, the viability, T/C (second compound 0.0316 µM, first compound 0.01 µM) was 67.1%, the viability, T/C [13] was 57.6% and the viability, T/C [14] was 48.4%. The viability, T/C (second compound 0.1 µM, first compound 0.000316 µM) was 60.8%, the viability, T/C (second compound 0.1 µM, first compound 0.001 µM) was 65.1% and the viability, T/C (second compound 0.1 µM, first compound 0.00316 µM) was 63.4%. The viability, T/C (second compound 0.1 µM, first compound 0.01 µM) was 55.3%, the viability, T/C [19] was 48% and the viability, T/C [20] was 34.7%. It also gave a viability, T/C (second compound 0.316 µM, first compound 0.000316 µM) of 29.5%, a viability, T/C (second compound 0.316 µM, first compound 0.001 µM) of 27.4% and a viability, T/C (second compound 0.316 µM, first compound 0.00316 µM) of 26.4%. For the same compound, the viability, T/C (second compound 0.316 µM, first compound 0.01 µM) was 26.9%, the viability, T/C [25] was 26.7% and the viability, T/C [26] was 17.5%. For the same compound, the viability, T/C (second compound 1 µM, first compound 0.000316 µM) was 3.21%, the viability, T/C (second compound 1 µM, first compound 0.001 µM) was 2.83% and the viability, T/C (second compound 1 µM, first compound 0.00316 µM) was 2.99%. The viability, T/C (second compound 1 µM, first compound 0.01 µM) was 4.15%, the viability, T/C [31] was 3.68% and the viability, T/C [32] was 2.25%.
